Measured values from patent US5776944A, “7-(4-aminomethyl-3-methyloxyiminopyrroplidin-1-yl)-1-cyclopropyl-6-flu oro-4-oxo-1,4-dihydro-1,8-naphthyridine-3-carboxylic acid and the process for the preparation thereof” (LG Chemical Ltd., priority 1994, dated 1998).
Converted amounts (≈) assume the structure as drawn. Where two headings read alike, the source gives them in different places.

Columns and labels:
[1] = Chemical stability under heating
Experimental: The anhydride and each of the hydrates was introduced into a glass vial and maintained at 70° C.

[2] = test system: Salmonella typimurium 14028; test: In vitro antibacterial activity (MIC, agar dilution), Biological Example 1; format: cell-based; settings: 18 h; Salmonella typimurium 14028, Table 25; read-out: Minimum Inhibitory Concentration
[3] = test system: Acinetobacter calcoaceticus 15473; test: as above; format: cell-based; settings: 18 h; Acinetobacter calcoaceticus 15473, Table 25; read-out: Minimum Inhibitory Concentration
[4] = test system: Klebsiella aerogenes 1082E; test: as above; format: cell-based; settings: 18 h, Table 25, read-out: Minimum Inhibitory Concentration
Enterobacter cloacae P99 = test: microbe, parasite or virus in culture; format: cell-based; settings: P99, 18 h, read-out: Minimum Inhibitory Concentration
[5] = test system: Staphylococcus aureus 241; test: In vitro antibacterial activity (MIC, agar dilution), Biological Example 1; format: cell-based; settings: 18 h; Staphylococcus aureus 241, Table 25; read-out: Minimum Inhibitory Concentration
[6] = test system: Escherichia coli TEM3 3455E; test: microbe, parasite or virus in culture; format: cell-based; settings: TEM33455E, 18 h, read-out: Minimum Inhibitory Concentration
Escherichia coli 851E = test: In vitro antibacterial activity (MIC, agar dilution), Biological Example 1; format: cell-based; settings: 18 h, Table 25, read-out: Minimum Inhibitory Concentration
[7] = test system: Staphylococcus epidermidis 887E; test: as above; format: cell-based; settings: 18 h, Table 25, read-out: Minimum Inhibitory Concentration
[8] = test system: Pseudomonas aeruginosa 1912E; test: as above; format: cell-based; settings: 18 h, read-out: Minimum Inhibitory Concentration
Escherichia coli 3190Y = test: as above; format: cell-based; settings: 18 h, Table 25, read-out: Minimum Inhibitory Concentration
Micrococcus luteus 9341 = test: as above; format: cell-based; settings: 18 h; Micrococcus luteus 9341, Table 25; read-out: Minimum Inhibitory Concentration
[9] = test system: Staphylococcus epidermidis 178; test: as above; format: cell-based; settings: 18 h; Staphylococcus epidermidis 178, Table 25; read-out: Minimum Inhibitory Concentration
[10] = test system: Staphylococcus aureus 6538p; test: as above; format: cell-based; settings: 18 h, Table 25, read-out: Minimum Inhibitory Concentration
[11] = test system: Escherichia coli TEM9 2639E; test: microbe, parasite or virus in culture; format: cell-based; settings: TEM92639E, 18 h, read-out: Minimum Inhibitory Concentration
[12] = test system: Klebsiella aerogenes 1976E; test: In vitro antibacterial activity (MIC, agar dilution), Biological Example 1; format: cell-based; settings: 18 h, Table 25, read-out: Minimum Inhibitory Concentration
Staphylococcus aureus 77 = test: as above; format: cell-based; settings: 18 h; Staphylococcus aureus 77, Table 25; read-out: Minimum Inhibitory Concentration
[13] = test system: Streptococcus faecalis 29212; test: as above; format: cell-based; settings: Enterococcus faecalis, 18 h; Streptococcus faecalis 29212, Table 25; read-out: Minimum Inhibitory Concentration
Escherichia coli 10536 = test: as above; format: cell-based; settings: 18 h; Escherichia coli 10536, Table 25; read-out: Minimum Inhibitory Concentration
[14] = test system: Pseudomonas aeruginosa 10145; test: as above; format: cell-based; settings: 18 h; Pseudomonas aeruginosa 10145, Table 25; read-out: Minimum Inhibitory Concentration
[15] = test system: Citrobacter diversus 2046E; test: as above; format: cell-based; settings: Citrobacter koseri, 18 h, Table 25, read-out: Minimum Inhibitory Concentration
[16] = test system: Enterobacter cloacae 1194E; test: microbe, parasite or virus in culture; format: cell-based; settings: 18 h, read-out: Minimum Inhibitory Concentration
Pharmacokinetic test = format: in vivo; settings: rat, blood, 20 mg/kg, SD rats (male); for Cmax: read-out: Cmax (maximum blood concentration); for half-life: read-out: T1/2 (biological half life) (converted); for Tmax: read-out: Tmax (time showing maximum blood concentration); for bioavailability: printed in the IV line, read-out: F (bioavailability)
[17] = test system: Staphylococcus aureus giorgio; test: In vitro antibacterial activity (MIC, agar dilution), Biological Example 1; format: cell-based; settings: 18 h, Table 25, read-out: Minimum Inhibitory Concentration
Bacillus subtilis 6633 = test: as above; format: cell-based; settings: 18 h; Bacillus subtilis 6633, Table 25; read-out: Minimum Inhibitory Concentration
[18] = test system: Escherichia coli TEM5 3739E; test: microbe, parasite or virus in culture; format: cell-based; settings: TEM53739E, 18 h, read-out: Minimum Inhibitory Concentration
[19] = phosphate buffered solution
physchem = settings: phosphate buffered solution
[20] = Pseudomonas aeruginosa 1912E, Table 25

Row | SMILES | MIC [2] [µg/mL] | MIC [3] [µg/mL] | MIC [4] [µg/mL] | MIC (Enterobacter cloacae P99) [µg/mL] | MIC [5] [µg/mL] | MIC [6] [µg/mL] | MIC (Escherichia coli 851E) [µg/mL] | MIC [7] [µg/mL] | MIC (Escherichia coli 3190Y) [µg/mL] | MIC (Micrococcus luteus 9341) [µg/mL] | MIC [9] [µg/mL] | MIC [10] [µg/mL] | MIC [11] [µg/mL] | MIC [12] [µg/mL] | MIC (Staphylococcus aureus 77) [µg/mL] | MIC [13] [µg/mL] | MIC (Escherichia coli 10536) [µg/mL] | MIC [14] [µg/mL] | MIC [15] [µg/mL] | MIC [16] [µg/mL] | further results
1 | CON=C1CN(c2nc3c(cc2F)c(=O)c(C(=O)O)cn3C2CC2)CC1CN (centres unmarked) [Anhydrate, 7-(4-aminomethyl-3-methyloxyiminopyrrolidin-1-yl)-1-cyclopropyl-6-fluoro-4-oxo-1,4-dihydro-1,8-naphthyridine-3-carboxylic acid methanesulfonate anhydride] |  |  |  |  |  |  |  |  |  |  |  |  |  |  |  |  |  |  |  |  | thermal stability [1]: 99%; remaining at 336 h ([1]; thermal stability, 2 weeks, 70° C.): 97%; remaining at 672 h ([1]; thermal stability, 4 weeks, 70° C.): 95%
2 | CC(C)(C)ON=C1CN(c2nc3c(cc2F)c(=O)c(C(=O)O)cn3C2CC2)CC1CN (centres unmarked) [Example 89, 7-(4-aminomethyl-3-t-butyloxyimino-pyrrolidin-1-yl)-1-cyclopropyl-6-fluoro-1,4-dihydro-4-oxo-1,8-naphthyridine-3-carboxylic acid] | 0.13 (≈ 0.301 µM) | 0.031 (≈ 0.0718 µM) | 0.25 (≈ 0.579 µM) | 0.016 (≈ 0.0371 µM) | 1 (≈ 2.32 µM) | 0.25 (≈ 0.579 µM) | 0.063 (≈ 0.146 µM) | ≤ 0.008 | 0.016 (≈ 0.0371 µM) | 0.25 (≈ 0.579 µM) | 0.5 (≈ 1.16 µM) | ≤ 0.008 | 0.063 (≈ 0.146 µM) | 0.5 (≈ 1.16 µM) | ≤ 0.008 | 0.063 (≈ 0.146 µM) | 0.016 (≈ 0.0371 µM) | 2 (≈ 4.64 µM) | 0.13 (≈ 0.301 µM) | 0.13 (≈ 0.301 µM) | MIC [8, 20]: 2 µg/mL (≈ 4.64 µM); Cmax (Pharmacokinetic test; PO): 4890 ± 2230 ng/mL; half-life (Pharmacokinetic test; PO): 401 ± 167 min; Tmax (Pharmacokinetic test; PO): 2.18 ± 0.77 h; bioavailability (Pharmacokinetic test): > 100%; half-life (Pharmacokinetic test; IV): 137 ± 67.8 min; MIC [17]: ≤ 0.008 µg/mL; MIC (Bacillus subtilis 6633): ≤ 0.008 µg/mL; MIC [18]: 0.13 µg/mL (≈ 0.301 µM)
3 | CON=C1CN(c2c(F)cc3c(=O)c(C(=O)O)cn(C4CC4)c3c2F)CC1CN (centres unmarked) [Example 177] | 0.063 (≈ 0.155 µM) | 0.13 (≈ 0.32 µM) | 0.063 (≈ 0.155 µM) | 0.016 (≈ 0.0394 µM) | 0.5 (≈ 1.23 µM) | 0.25 (≈ 0.615 µM) | 0.031 (≈ 0.0763 µM) | ≤ 0.008 | ≤ 0.008 | 0.063 (≈ 0.155 µM) | 1 (≈ 2.46 µM) | ≤ 0.008 | 0.063 (≈ 0.155 µM) | 0.13 (≈ 0.32 µM) | 0.016 (≈ 0.0394 µM) | 0.031 (≈ 0.0763 µM) | ≤ 0.008 | 0.5 (≈ 1.23 µM) | 0.031 (≈ 0.0763 µM) | 0.063 (≈ 0.155 µM) | MIC [8, 20]: 0.5 µg/mL (≈ 1.23 µM); Cmax (Pharmacokinetic test; PO): 370 ± 110 ng/mL; half-life (Pharmacokinetic test; PO): 236 ± 78.6 min; Tmax (Pharmacokinetic test; PO): 0.51 ± 0.33 h; bioavailability (Pharmacokinetic test): 47.2%; half-life (Pharmacokinetic test; IV): 115 ± 22.8 min; MIC [17]: ≤ 0.008 µg/mL; MIC (Bacillus subtilis 6633): ≤ 0.008 µg/mL; MIC [18]: 0.13 µg/mL (≈ 0.32 µM)
4 | CC1COc2c(N3CCN(C)CC3)c(F)cc3c(=O)c(C(=O)O)cn1c23 (centres unmarked) [OFLX, ofloxacin, reference compound] | 0.13 (≈ 0.36 µM) | 0.25 (≈ 0.692 µM) | 0.063 (≈ 0.174 µM) | ≤ 0.008 | 64 (≈ 177 µM) | 0.5 (≈ 1.38 µM) | 0.063 (≈ 0.174 µM) | 0.25 (≈ 0.692 µM) | 0.016 (≈ 0.0443 µM) | 2 (≈ 5.53 µM) | 32 (≈ 88.6 µM) | 0.25 (≈ 0.692 µM) | 0.063 (≈ 0.174 µM) | 0.25 (≈ 0.692 µM) | 0.25 (≈ 0.692 µM) | 2 (≈ 5.53 µM) | 0.031 (≈ 0.0858 µM) | 2 (≈ 5.53 µM) | 0.063 (≈ 0.174 µM) | 0.063 (≈ 0.174 µM) | MIC ([8]; Pseudomonas aeruginosa, 1912E): 0.5 µg/mL (≈ 1.38 µM); MIC [17]: 0.25 µg/mL (≈ 0.692 µM); MIC (Bacillus subtilis 6633): 0.063 µg/mL (≈ 0.174 µM); MIC [18]: 0.5 µg/mL (≈ 1.38 µM)
5 | CON=C1CN(c2nc3c(cc2F)c(=O)c(C(=O)O)cn3C2CC2)CC1CN (centres unmarked) [Sulfurate] |  |  |  |  |  |  |  |  |  |  |  |  |  |  |  |  |  |  |  |  | Water Solubility ([19]; pH 2): 8.9; Water Solubility ([19]; pH 7): 11.4
6 | CON=C1CN(c2nc3c(cc2F)c(=O)c(C(=O)O)cn3C2CC2)CC1CN (centres unmarked) [Tartarate] |  |  |  |  |  |  |  |  |  |  |  |  |  |  |  |  |  |  |  |  | solubility (physchem; pH 2): 15.4 mg/mL (≈ 39500 µM); solubility (physchem; pH 7): 6.7 mg/mL (≈ 17200 µM)
